Data from patent US20230123140A1, “DOSE TREATMENTS OF TAUOPATHIES” (AC Immune SA, priority 2020, published 2023).

Assays:
[1] = test system: Tg4510 transgenic mouse model; test: Studies of ACI-3024 in the Tg4510 transgenic mouse model (CSF target level); type: in vivo; settings: derived from studies in Tg4510 transgenic mouse model
Method: The present invention is directed to a compound ACI-3024 for use in the treatment, prevention or alleviation of a disorder or an abnormality associated with Tau protein aggregates or a tauopathy comprising administering said compound at an amount up to or equal to 1500 mg/day to a human subject in need thereof wherein the compound ACI-3024 is constantly present in the human subject CSF at a concentration above or equal to 30 nM level at predose, preferably above or equal to 90 nM level at predose. The predefined predose level of ACI-3024 of 30 nM is derived from studies of ACI-3024 in the Tg4510 transgenic mouse model which reflects the clinical manifestation of tauopathies and determines the minimum concentration of the compound in the CSF necessary to achieve clinical efficacy before another dose of the same compound is given (ie a threshold value below which efficacy would be lost). Preferably, the compound ACI-3024 is present in the human subject CSF at a concentration above or equal to 30 nM, preferably above or equal to 90 nM, during the treatment.

cardiovascular system = test: Cardiovascular evaluation in telemetrized mini-pig; type: in vivo; settings: single oral dose 0, 50, 150 and 450 mg/kg, male Gottingen mini-pigs
Method: This study was conducted to evaluate the potential effects on the cardiovascular system of ACI-3024 when given as single dose to telemetrized Gottingen mini-pig.
Doses of 0, 50, 150 and 450 mg/kg were administered by oral gavage to 4 males/group. The dose volume was set at 5 mL/kg. The study was a randomized cross over design which consisted of four phases separated by seven days of wash out. In each phase each animal received as single administration of one selected doses. Through the phases each animal received all the dose levels once. ECG (heart rate, duration of the PR, QRS, QT, QTcF (QT interval corrected by Fridericia) and RR intervals (millisecond; ms), blood pressure (systolic, diastolic, and mean arterial pressure) and body temperature parameters through a transmitter implanted into the animals were continuously recorded starting from 30 minutes before dosing up to 20 hours after dose. Different timepoints during the recording period were sampled (−30 min (before dose) and 1 h, 2 h, 4 h, 6 h, 8 h, 12 h and 20 h (after dose)), per each timepoint 5-minute segment was used for study purposes.

Fc1ccc2c3c([nH]c2c1)CCN(c1ccc2oc(N4CCOCC4)nc2c1)C3 [ACI-3024]
minimum predose CSF level necessary for efficacy (target) [1]: 30 nM | effect on cardiovascular parameters and body temperature (cardiovascular system): no effect
